US10081631B2, “2-(1H-indazol-3-yl)-1H-imidazo[4,5-C]pyridine and therapeutic uses thereof” (Samumed, LLC, priority 2014, dated 2018)

Experiments:
[1] = test system: Wnt activity (Sp5-Luc reporter, SW480 colon carcinoma cells); assay: Screening assay for Wnt activity: Sp5-Luc reporter gene assay in SW480 cells; format: cell-based; conditions: Homo sapiens, 42 h incubation, luminescence
In short: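 IC50 values come from variable-slope four-parameter fits of luciferase signal normalized to DMSO wells. Stable Sp5-Luc reporter SW480 colon carcinoma cells were exposed to compounds in a 3-fold dilution series (source plates from 10 mM stock) for forty-two hours at 37 °C.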

[2] = test system: primary human fibroblasts derived from IPF patients (LL29 cells); assay: Inhibition of fibrosis: TGF-β1-treated primary human fibroblasts from IPF patients (LL29), αSMA staining; format: cell-based; conditions: Fibroblast, 96 h, TGF-β1 20 ng/mL, 4 days, % αSMA-positive cells
In short: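 […] (0.1% DMSO) on LL29 cells in F12 with 1% FBS, with TGF-β1 (20 ng/mL) added 1 h after plating; 4 days at 37 °C. SYTOX-positive dead cells were excluded and the % αSMA-positive cells was imaged, normalized to TGF-β1/DMSO wells, triplicates; EC50 by non-linear regression.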

| SMILES | IC50 [1] | EC50 [2] |
| --- | --- | --- |
| Cc1ccc(-c2nccc3[nH]c(-c4n[nH]c5ccc(-c6cncc(CN7CCCCC7)c6)cc45)nc23)s1 [Compound 353, 4-(5-Methylthiophen-2-yl)-2-(5-(5-(piperidin-1-ylmethyl)pyridin-3-yl)-1H-indazol-3-yl)-1H-imidazo[4,5-c]pyridine] | 844 nM | 9 nM |
| Fc1cccc(-c2nccc3[nH]c(-c4n[nH]c5ccc(C6CCNCC6)cc45)nc23)c1 [Compound 1769, 4-(3-Fluorophenyl)-2-(5-(piperidin-4-yl)-1H-indazol-3-yl)-1H-imidazo[4,5-c]pyridine] | 2340 nM | 670 nM |
| O=C(Nc1cncc(-c2ccc3[nH]nc(-c4nc5c(-c6ccc(F)s6)nccc5[nH]4)c3c2)c1)C1CCC1 [Compound 332, N-(5-(3-(4-(5-Fluorothiophen-2-yl)-1H-imidazo[4,5-c]pyridin-2-yl)-1H-indazol-5-yl)pyridin-3-yl)cyclobutanecarboxamide] | 32.6 nM | 363 nM |
| CN1CCN(c2nccc3[nH]c(-c4n[nH]c5ccc(-c6cncnc6)cc45)nc23)CC1 [Compound 234, 4-(4-Methylpiperazin-1-yl)-2-(5-(pyrimidin-5-yl)-1H-indazol-3-yl)-1H-imidazo[4,5-c]pyridine] | 21 nM | 280 nM |
| Fc1ccc(-c2nccc3[nH]c(-c4n[nH]c5ccc(-c6cncnc6)cc45)nc23)cc1 [Compound 52, 4-(4-Fluorophenyl)-2-(5-(pyrimidin-5-yl)-1H-indazol-3-yl)-1H-imidazo[4,5-c]pyridine] | 25 nM | 539 nM |
| CC(C)C(=O)Nc1cncc(-c2ccc3[nH]nc(-c4nc5c(N6CCN(C)CC6)nccc5[nH]4)c3c2)c1 [Compound 217, N-(5-(3-(4-(4-Methylpiperazin-1-yl)-1H-imidazo[4,5-c]pyridin-2-yl)-1H-indazol-5-yl)pyridin-3-yl)isobutyramide] | 245 nM | 4450 nM |
| Fc1ccc(-c2nccc3[nH]c(-c4n[nH]c5ccc(-c6cncc(CN7CCCC7)c6)cc45)nc23)cc1 [Compound 40, 4-(4-Fluorophenyl)-2-(5-(5-(pyrrolidin-1-ylmethyl)pyridin-3-yl)-1H-indazol-3-yl)-1H-imidazo[4,5-c]pyridine] | 75 nM | 24 nM |
| CN(C)Cc1cncc(-c2ccc3[nH]nc(-c4nc5c(N6CCCCC6)nccc5[nH]4)c3c2)c1 [Compound 169, N,N-Dimethyl-1-(5-(3-(4-(piperidin-1-yl)-1H-imidazo[4,5-c]pyridin-2-yl)-1H-indazol-5-yl)pyridin-3-yl)methanamine] | 4020 nM | 171 nM |
| CC(C)Nc1cncc(-c2ccc3[nH]nc(-c4nc5c(-c6ccc(F)cc6)nccc5[nH]4)c3c2)c1 [Compound 38, 5-(3-(4-(4-Fluorophenyl)-1H-imidazo[4,5-c]pyridin-2-yl)-1H-indazol-5-yl)-N-isopropylpyridin-3-amine] | 42.9 nM | 126 nM |
| O=C(Nc1cncc(-c2ccc3[nH]nc(-c4nc5c(-c6ccsc6)nccc5[nH]4)c3c2)c1)c1ccccc1 [Compound 245, N-(5-(3-(4-(Thiophen-3-yl)-1H-imidazo[4,5-c]pyridin-2-yl)-1H-indazol-5-yl)pyridin-3-yl)benzamide] | 40 nM | 17 nM |
| CS(=O)(=O)NCc1cc(F)cc(-c2nccc3[nH]c(-c4n[nH]c5ccc(-c6cncc(NC(=O)Cc7ccccc7)c6)cc45)nc23)c1 [Compound 400, N-(5-(3-(4-(3-Fluoro-5-(methylsulfonamidomethyl)phenyl)-1H-imidazo[4,5-c]pyridin-2-yl)-1H-indazol-5-yl)pyridin-3-yl)-2-phenylacetamide] | > 10000 nM | 9 nM |
| O=C(Nc1cncc(-c2ccc3[nH]nc(-c4nc5c(-c6ccccn6)nccc5[nH]4)c3c2)c1)C1CCC1 [Compound 150, N-(5-(3-(4-(Pyridin-2-yl)-1H-imidazo[4,5-c]pyridin-2-yl)-1H-indazol-5-yl)pyridin-3-yl)cyclobutanecarboxamide] | 51.4 nM | 1520 nM |
| O=C(Nc1cncc(-c2ccc3[nH]nc(-c4nc5c(-c6cccs6)nccc5[nH]4)c3c2)c1)C1CCCC1 [Compound 307, N-(5-(3-(4-(Thiophen-2-yl)-1H-imidazo[4,5-c]pyridin-2-yl)-1H-indazol-5-yl)pyridin-3-yl)cyclopentanecarboxamide] | 34.8 nM | 422 nM |
| CN1CCN(c2nccc3[nH]c(-c4n[nH]c5ccc(-c6cncc(NC(=O)C7CCCC7)c6)cc45)nc23)CC1 [Compound 229, N-(5-(3-(4-(4-Methylpiperazin-1-yl)-1H-imidazo[4,5-c]pyridin-2-yl)-1H-indazol-5-yl)pyridin-3-yl)cyclopentanecarboxamide] | 711 nM | 9990 nM |

These reach a lower IC50 [1]. Values come first.

| IC50 [1] | SMILES | EC50 [2] |
| --- | --- | --- |
| 17.9 nM | CC(C)(C)C(=O)Nc1cncc(-c2ccc3[nH]nc(-c4nc5c(-c6cccnc6)nccc5[nH]4)c3c2)c1 [Compound 86, N-(5-(3-(4-(Pyridin-3-yl)-1H-imidazo[4,5-c]pyridin-2-yl)-1H-indazol-5-yl)pyridin-3-yl)pivalamide] | 993 nM |
| 11 nM | Cn1cc(-c2ccc3[nH]nc(-c4nc5c(-c6cccc(F)c6)nccc5[nH]4)c3c2)cn1 [Compound 1772, 4-(3-Fluorophenyl)-2-(5-(1-methyl-1H-pyrazol-4-yl)-1H-indazol-3-yl)-1H-imidazo[4,5-c]pyridine] | 9990 nM |
| 10 nM | O=C(Nc1cncc(-c2ccc3[nH]nc(-c4nc5c(-c6ccc(F)cc6)nccc5[nH]4)c3c2)c1)C1CCC1 [Compound 46, N-(5-(3-(4-(4-Fluorophenyl)-1H-imidazo[4,5-c]pyridin-2-yl)-1H-indazol-5-yl)pyridin-3-yl)cyclobutanecarboxamide] | 9 nM |
| 9 nM | CC(C)CC(=O)Nc1cncc(-c2ccc3[nH]nc(-c4nc5c(-c6ccc(F)cc6)nccc5[nH]4)c3c2)c1 [Compound 28, N-(5-(3-(4-(4-Fluorophenyl)-1H-imidazo[4,5-c]pyridin-2-yl)-1H-indazol-5-yl)pyridin-3-yl)-3-methylbutanamide] | 9 nM |
| 8 nM | O=C(Nc1cncc(-c2ccc3[nH]nc(-c4nc5c(-c6ccccc6F)nccc5[nH]4)c3c2)c1)C1CCCC1 [Compound 73, N-(5-(3-(4-(2-Fluorophenyl)-1H-imidazo[4,5-c]pyridin-2-yl)-1H-indazol-5-yl)pyridin-3-yl)cyclopentanecarboxamide] | 9 nM |
| 8 nM | c1cncc(-c2ccc3[nH]nc(-c4nc5c(-c6cccnc6)nccc5[nH]4)c3c2)c1 [Compound 82, 4-(Pyridin-3-yl)-2-(5-(pyridin-3-yl)-1H-indazol-3-yl)-1H-imidazo[4,5-c]pyridine] | 9 nM |
| 7 nM | Cc1ccc(-c2nccc3[nH]c(-c4n[nH]c5ccc(-c6cncc(NC(=O)C(C)C)c6)cc45)nc23)s1 [Compound 347, N-(5-(3-(4-(5-Methylthiophen-2-yl)-1H-imidazo[4,5-c]pyridin-2-yl)-1H-indazol-5-yl)pyridin-3-yl)isobutyramide] | 38 nM |
| 5 nM | CC(C)CC(=O)Nc1cncc(-c2ccc3[nH]nc(-c4nc5c(-c6cccc(F)c6)nccc5[nH]4)c3c2)c1 [Compound 2, N-(5-(3-(4-(3-Fluorophenyl)-1H-imidazo[4,5-c]pyridin-2-yl)-1H-indazol-5-yl)pyridin-3-yl)-3-methylbutanamide] | 9 nM |
| 5 nM | CCCC(=O)Nc1cncc(-c2ccc3[nH]nc(-c4nc5c(-c6ccccc6F)nccc5[nH]4)c3c2)c1 [Compound 69, N-(5-(3-(4-(2-Fluorophenyl)-1H-imidazo[4,5-c]pyridin-2-yl)-1H-indazol-5-yl)pyridin-3-yl)butyramide] | 74 nM |
| 5 nM | Cc1cn(-c2nccc3[nH]c(-c4n[nH]c5ccc(-c6cncc(NC(=O)C(C)(C)C)c6)cc45)nc23)cn1 [Compound 190, N-(5-(3-(4-(4-Methyl-1H-imidazol-1-yl)-1H-imidazo[4,5-c]pyridin-2-yl)-1H-indazol-5-yl)pyridin-3-yl)pivalamide] | 50 nM |
| 4.1 nM | Nc1cncc(-c2ccc3[nH]nc(-c4nc5c(-c6ccccc6F)nccc5[nH]4)c3c2)c1 [Compound 55, 5-(3-(4-(2-Fluorophenyl)-1H-imidazo[4,5-c]pyridin-2-yl)-1H-indazol-5-yl)pyridin-3-amine] | 17 nM |
| 4 nM | O=C(Nc1cncc(-c2ccc3[nH]nc(-c4nc5c(-c6cccs6)nccc5[nH]4)c3c2)c1)C1CC1 [Compound 305, N-(5-(3-(4-(Thiophen-2-yl)-1H-imidazo[4,5-c]pyridin-2-yl)-1H-indazol-5-yl)pyridin-3-yl)cyclopropanecarboxamide] | 22 nM |
| 4 nM | CC(C)Nc1cncc(-c2ccc3[nH]nc(-c4nc5c(-c6cccnc6)nccc5[nH]4)c3c2)c1 [Compound 90, N-Isopropyl-5-(3-(4-(pyridin-3-yl)-1H-imidazo[4,5-c]pyridin-2-yl)-1H-indazol-5-yl)pyridin-3-amine] | 9 nM |
| 4 nM | Fc1cccc(-c2nccc3[nH]c(-c4n[nH]c5ccc(-c6cn[nH]c6)cc45)nc23)c1 [Compound 1771, 2-(5-(1H-Pyrazol-4-yl)-1H-indazol-3-yl)-4-(3-fluorophenyl)-1H-imidazo[4,5-c]pyridine] | 9990 nM |
| 4 nM | CN(C)c1cncc(-c2ccc3[nH]nc(-c4nc5c(-c6cccc(F)c6)nccc5[nH]4)c3c2)c1 [Compound 7, 5-(3-(4-(3-Fluorophenyl)-1H-imidazo[4,5-c]pyridin-2-yl)-1H-indazol-5-yl)-N,N-dimethylpyridin-3-amine] | 9 nM |
